Usually Ki stands for a measure of affinity in units of concentration, obtained from inhibition or displacement.

The nature of assay [1]: Inhibition of hydroxyapatite growth (calcium phosphate crystal formation and precipitation inhibiting activity). It is filed as biochemical. On the set-up: key to the marks not given beside the values. The conditions noted are these: at 100 μM.
A short description of assay [2]: Binding to hydroxyapatite (effect of bisphosphonates and their derivatives on hydroxyapatite).
The subject of assay [3] is mouse calvaria. Description: Parathyroid hormone stimulated bone resorption inhibition activity in vitro in mouse calvaria. The format is cell-based. Here is the method:
(§1) In addition, the parathyroid hormone stimulated bone resorption inhibition activity in vitro in mouse calvaria, as well as inhibition of retinoid induced bone resorption in thyroparathyroidectomised rats in vivo were determined (Reynolds & Dingle (Calc Tiss Res 1970; 4:339, and Trechsel et al. (J Clin Invest 1987; 80:1679)) (Table 2).

The test system of assay [4] is retinoid induced bone resorption. Description: Inhibition of retinoid induced bone resorption in thyroparathyroidectomised rats in vivo. Particulars: 150 μmole/kg. Here is the method:
as §1

In the case of `CC(C)OP(=O)(O)C(C)(O)P(=O)(O)O` (stereo not shown) [(1-Hydroxyethylidene)bisphosphonic acid monoisopropyl ester], the Inhibition of growth entry in assay [1] was “+++”. For the same molecule, the Ki in assay [2] came out at 7.3 µM.
On to `CCCCC(O)(P(=O)(O)O)P(=O)(O)O` [(1-Hydroxypentylidene)bisphosphonate, (1-Hydroxypentylidene)-bisphosphonate, reference compound], for which, in assay [3] (100 μm), the “Inhibition of resorption (%)” value was 56%.
With `CCCCC(O)(P(=O)(O)O)P(=O)(O)OC(C)C` (stereo not shown) [(1-hydroxypentylidene)bisphosphonic acid monoisopropyl ester], the Inhibition of growth entry in assay [1] is given as “++”. This molecule also registered a Ki in assay [2] of 15.4 µM.
For the molecule `CCCCC(O)(P(=O)(O)O)P(=O)(O)OC` (stereo not shown) [(1-hydroxypentylidene)bisphosphonic acid monomethyl ester], the Inhibition of growth result in assay [1] is reported as “+++”. Further, the inhibition constant Ki in assay [2] stood at 11.8 µM. Further, the figures for the “Inhibition of resorption (%)” value in assay [4], in assay [3] (100 μm) and in assay [3] (1000 μm) were 52%, 7% and 47%, respectively.
With `O=P(O)(O)C(Cl)(Cl)P(=O)(O)O` [Clodronate, reference compound], the Inhibition of growth result in assay [1] was “+++”. The molecule further came in with a Ki in assay [2] of 1.3 µM.
As to `CC(O)(P(=O)(O)O)P(=O)(O)O` [Etidronate, reference compound], the inhibition constant Ki in assay [2] was found to be 0.9 µM.

The values are drawn from patent publication US5438048A, “Methylenebisphosphonic acid derivatives” (Leiras Oy, priority 1990, dated 1995).
